Results published in patent US9828379B2 (priority 2013, dated 2017).

Tests used:
[1] = biological target: T1, MAGL (Mus musculus, UniProt O35678); experiment: In vitro competitive activity-based protein profiling (Table 2, % inhibition at 1 μM); format: biochemical; conditions: read-out: % Inhibition at 1 μM MAGL
T1 sequence (O35678 1-303): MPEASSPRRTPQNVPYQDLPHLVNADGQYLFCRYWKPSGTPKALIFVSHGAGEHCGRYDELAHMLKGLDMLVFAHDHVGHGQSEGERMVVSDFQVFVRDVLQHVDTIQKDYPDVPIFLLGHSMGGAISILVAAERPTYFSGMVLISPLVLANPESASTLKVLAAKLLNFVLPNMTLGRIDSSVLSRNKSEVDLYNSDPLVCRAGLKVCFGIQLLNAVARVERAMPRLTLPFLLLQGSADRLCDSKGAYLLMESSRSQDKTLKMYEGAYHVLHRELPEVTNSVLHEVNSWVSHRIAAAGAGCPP
Procedure: After 30 min, FP—Rh (1.0 μL, 50 μM in DMSO) was added and the mixture was incubated for another 30 min at 37° C. Reactions were quenched with SDS loading buffer (50 μL-4×) and run on SDS-PAGE.
Cell lysates were diluted with mock proteomes for use in competitive ABPP experiments.

[2] = biological target: T2, ABHD6 (Mus musculus, UniProt Q8R2Y0); experiment: biochemical; conditions: in vitro competitive ABPP
T2 sequence (Q8R2Y0 1-336): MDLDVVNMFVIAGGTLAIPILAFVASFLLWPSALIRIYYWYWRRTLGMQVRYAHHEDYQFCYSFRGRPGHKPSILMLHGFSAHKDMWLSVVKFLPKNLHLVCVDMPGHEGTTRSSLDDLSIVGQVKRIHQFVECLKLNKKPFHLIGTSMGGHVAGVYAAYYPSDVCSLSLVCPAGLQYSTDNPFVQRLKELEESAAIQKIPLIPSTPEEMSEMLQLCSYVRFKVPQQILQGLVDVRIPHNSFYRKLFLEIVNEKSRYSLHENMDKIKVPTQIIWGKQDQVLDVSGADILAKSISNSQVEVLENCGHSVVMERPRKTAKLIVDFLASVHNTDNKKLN

[3] = biological target: T3, FAAH (Mus musculus, UniProt O08914); experiment: biochemical; conditions: in vitro competitive ABPP
T3 sequence (O08914 1-579): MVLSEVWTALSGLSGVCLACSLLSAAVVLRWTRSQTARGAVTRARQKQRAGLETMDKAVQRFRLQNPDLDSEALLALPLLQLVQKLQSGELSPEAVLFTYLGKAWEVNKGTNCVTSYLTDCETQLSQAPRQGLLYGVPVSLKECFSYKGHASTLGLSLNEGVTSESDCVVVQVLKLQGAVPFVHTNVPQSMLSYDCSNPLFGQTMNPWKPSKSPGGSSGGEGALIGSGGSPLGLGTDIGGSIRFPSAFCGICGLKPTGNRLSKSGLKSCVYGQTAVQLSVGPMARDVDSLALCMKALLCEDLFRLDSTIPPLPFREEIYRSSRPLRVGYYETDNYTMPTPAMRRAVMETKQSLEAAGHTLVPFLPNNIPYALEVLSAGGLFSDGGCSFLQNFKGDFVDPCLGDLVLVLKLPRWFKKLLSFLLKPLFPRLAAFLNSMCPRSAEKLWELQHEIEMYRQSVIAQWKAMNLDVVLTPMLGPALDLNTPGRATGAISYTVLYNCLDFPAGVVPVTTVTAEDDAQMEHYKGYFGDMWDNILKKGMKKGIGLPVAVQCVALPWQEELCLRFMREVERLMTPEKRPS

[4] = biological target: T1, MAGL; experiment: biochemical; conditions: mouse; in vitro competitive ABPP; read-out: Mouse (IC50 value, nM) MAGL
[5] = biological target: T3, FAAH; experiment: In vitro competitive activity-based protein profiling (Table 2, % inhibition at 1 μM); format: biochemical; conditions: read-out: % Inhibition at 1 μM FAAH
[6] = biological target: T2, ABHD6; experiment: as above; format: biochemical; conditions: read-out: % Inhibition at 1 μM ABHD6

Row | IC50 [2] | IC50 [3] | IC50 [4] | Compound | inhibition at 1 µM [1] | inhibition at 1 µM [5] | inhibition at 1 µM [6]
1 | > 10000 nM | > 10000 nM | 100 to 1000 nM | CCn1ncc(CN2CC3CN(C(=O)OC(C(F)(F)F)C(F)(F)F)CC3C2)c1C(=O)N1CCOCC1 (stereo not drawn) [Example 73, 1,1,1,3,3,3-Hexafluoropropan-2-yl 5-((1-ethyl-5-(morpholine-4-carbonyl)-1H-pyrazol-4-yl)methyl)hexahydropyrrolo[3,4-c]pyrrole-2(1H)-carboxylate] |  |  | 
2 | 1000 to 10000 nM | 1000 to 10000 nM | < 100 nM | CC(=O)NC1CN(c2ccc(Cl)cc2CN2CC3CN(C(=O)OC(C(F)(F)F)C(F)(F)F)CC3C2)C1 (stereo not drawn) [Example 7, 1,1,1,3,3,3-Hexafluoropropan-2-yl 5-(2-(3-acetamidoazetidin-1-yl)-5-chlorobenzyl)hexahydropyrrolo[3,4-c]pyrrole-2(1H)-carboxylate] |  |  | 
3 | 1000 to 10000 nM | > 10000 nM | 100 to 1000 nM | Cn1cc(CN2CC3CN(C(=O)ON4C(=O)CCC4=O)CC3C2)c(-c2ccccc2)n1 (stereo not drawn) [Example 114, 2,5-Dioxopyrrolidin-1-yl 5-((1-methyl-3-phenyl-1H-pyrazol-4-yl)methyl)hexahydropyrrolo[3,4-c]pyrrole-2(1H)-carboxylate] |  |  | 
4 | 1000 to 10000 nM | 1000 to 10000 nM | 100 to 1000 nM | CS(=O)(=O)NC1CCN(c2ccc(Cl)cc2CN2CC3CN(C(=O)OC(C(F)(F)F)C(F)(F)F)CC3C2)CC1 (stereo not drawn) [Example 6, 1,1,1,3,3,3-Hexafluoropropan-2-yl 5-(5-chloro-2-(4-(methylsulfonamido)piperidin-1-yl)benzyl)hexahydropyrrolo[3,4-c]pyrrole-2(1H)-carboxylate] |  |  | 
5 | 1000 to 10000 nM | 1000 to 10000 nM | 100 to 1000 nM | CC(=O)NC1CCN(c2ccc(Cl)cc2CN2CC3CN(C(=O)OC(C(F)(F)F)C(F)(F)F)CC3C2)CC1 (stereo not drawn) [Example 5, 1,1,1,3,3,3-Hexafluoropropan-2-yl 5-(2-(4-acetamidopiperidin-1-yl)-5-chlorobenzyl)hexahydropyrrolo[3,4-c]pyrrole-2(1H)-carboxylate] |  |  | 
6 |  |  |  | CC(C)c1ccc(CN2CC3CN(C(=O)ON4C(=O)CCC4=O)CC3C2)c(N2CCOCC2)c1 (stereo not drawn) [Example 97, 2,5-Dioxopyrrolidin-1-yl 5-[[2-(morpholin-4-yl)-4-(propan-2-yl)phenyl]methyl]-octahydropyrrolo[3,4-c]pyrrole-2-carboxylate] | < 25% | < 25% | < 25%
7 |  |  |  | O=C(ON1C(=O)CCC1=O)N1CC2CN(Cc3ccc(F)cc3N3CCOCC3)CC2C1 (stereo not drawn) [Example 89, 2,5-Dioxopyrrolidin-1-yl 5-[[4-fluoro-2-(morpholin-4-yl)phenyl]methyl]-octahydropyrrolo[3,4-c]pyrrole-2-carboxylate] | < 25% | < 25% | < 25%
8 |  |  |  | O=C(ON1C(=O)CCC1=O)N1CC2CN(Cc3ccc(C(=O)N4CCOCC4)cc3Cl)CC2C1 (stereo not drawn) [Example 163, 2,5-dioxopyrrolidin-1-yl 5-(2-chloro-4-(morpholine-4-carbonyl)benzyl)-hexahydropyrrolo[3,4-c]pyrrole-2(1H)-carboxylate] | < 25% | < 25% | < 25%
9 |  |  |  | CC(=O)NC1CCN(c2cccc(CN3CC4CN(C(=O)ON5C(=O)CCC5=O)CC4C3)c2C)CC1 (stereo not drawn) [Example 142, 2,5-dioxopyrrolidin-1-yl 5-[[3-(4-acetamidopiperidin-1-yl)-2-methylphenyl]methyl]-octahydropyrrolo[3,4-c]pyrrole-2-carboxylate] | < 25% | < 25% | < 25%
10 |  |  |  | O=C(OC(C(F)(F)F)C(F)(F)F)N1CC2CN(Cc3ccc(F)cc3N3CCOCC3)CC2C1 (stereo not drawn) [Example 14, 1,1,1,3,3,3-Hexafluoropropan-2-yl 5-[[4-fluoro-2-(morpholin-4-yl)phenyl]methyl]-octahydropyrrolo[3,4-c]pyrrole-2-carboxylate] | > 75% | 25 to 75% | < 25%
11 |  |  |  | CC1COCCN1c1ccc(CN2CC3CN(C(=O)ON4C(=O)CCC4=O)CC3C2)c(F)c1 (stereo not drawn) [Example 100, 2,5-Dioxopyrrolidin-1-yl 5-[[2-fluoro-4-(3-methylmorpholin-4-yl)phenyl]methyl]-octahydropyrrolo[3,4-c]pyrrole-2-carboxylate] | 25 to 75% | < 25% | < 25%
12 |  |  |  | Cn1cc(CN2CC3CN(C(=O)OC(C(F)(F)F)C(F)(F)F)CC3C2)c(C2CCN(S(C)(=O)=O)CC2)n1 (stereo not drawn) [Example 56, 1,1,1,3,3,3-Hexafluoropropan-2-yl 5-[[3-(1-methanesulfonylpiperidin-4-yl)-1-methyl-1H-pyrazol-4-yl]methyl]-octahydropyrrolo[3,4-c]pyrrole-2-carboxylate] | > 75% | < 25% | < 25%
13 |  |  |  | CC(C)n1cc(CN2CC3CN(C(=O)ON4C(=O)CCC4=O)CC3C2)c(-c2ccccc2Cl)n1 (stereo not drawn) [Example 118, 2,5-Dioxopyrrolidin-1-yl 5-[[3-(2-chlorophenyl)-1-(propan-2-yl)-1H-pyrazol-4-yl]methyl]-octahydropyrrolo[3,4-c]pyrrole-2-carboxylate] | 25 to 75% | < 25% | 25 to 75%
14 |  |  |  | CC(=O)N1CCN(c2cc(C(C)C)ccc2CN2CC3CN(C(=O)ON4C(=O)CCC4=O)CC3C2)CC1 (stereo not drawn) [Example 99, 2,5-Dioxopyrrolidin-1-yl 5-[[2-(4-acetylpiperazin-1-yl)-4-(propan-2-yl)phenyl]methyl]-octahydropyrrolo[3,4-c]pyrrole-2-carboxylate] | < 25% | < 25% | < 25%
15 | 1000 to 10000 nM | 1000 to 10000 nM | 1000 to 10000 nM | O=C(ON1C(=O)CCC1=O)N1CC2CN(Cc3ccc(N4CCOCC4)cc3F)CC2C1 (stereo not drawn) [Example 79, 2,5-Dioxopyrrolidin-1-yl 5-(2-fluoro-4-morpholinobenzyl)hexahydropyrrolo[3,4-c]pyrrole-2(1H)-carboxylate] |  |  | 
16 |  |  |  | CC1COCCN1c1cc(F)ccc1CN1CC2CN(C(=O)ON3C(=O)CCC3=O)CC2C1 (stereo not drawn) [Example 91, 2,5-Dioxopyrrolidin-1-yl 5-[[4-fluoro-2-(3-methylmorpholin-4-yl)phenyl]methyl]-octahydropyrrolo[3,4-c]pyrrole-2-carboxylate] | < 25% | < 25% | < 25%

Row | Compound | IC50 [2] | IC50 [3] | IC50 [4] | inhibition at 1 µM [1] | inhibition at 1 µM [5] | inhibition at 1 µM [6]
17 | Cc1c(CN2CC3CN(C(=O)OC(C(F)(F)F)C(F)(F)F)CC3C2)cccc1N1CCN(C)CC1 (stereo not drawn) [Example 154, 1,1,1,3,3,3-hexafluoropropan-2-yl 5-[[2-methyl-3-(4-methylpiperazin-1-yl)phenyl]methyl]-octahydropyrrolo[3,4-c]pyrrole-2-carboxylate] | 1000 to 10000 nM | > 10000 nM | 100 to 1000 nM | > 75% | < 25% | < 25%
18 | O=C(ON1C(=O)CCC1=O)N1CC2CN(Cc3ccc(N4CCOCC4)cc3Cl)CC2C1 (stereo not drawn) [Example 80, 2,5-Dioxopyrrolidin-1-yl 5-(2-chloro-4-morpholinobenzyl)hexahydropyrrolo[3,4-c]pyrrole-2(1H)-carboxylate] | 1000 to 10000 nM | 1000 to 10000 nM | 100 to 1000 nM | 25 to 75% | 25 to 75% | < 25%
